Assay results from patent US20210393540A1, “NANOPARTICLE-ENCAPSULATED CANNABINOIDS AND METHODS FOR MAKING AND USING SAME” (NuRevelation, LLC, priority 2020, published 2021).

Assay: Stability of CBD after encapsulation into nanoparticles, by NMR spectra
Assay type: physicochemical
Details: NMR spectrum of CBD after encapsulation into nanoparticles (bottom) relative to non-encapsulated CBD sample (top), FIG. 3
Source text: In some aspects, the cannabinoid in the dispersion can have a purity of at least 90%. In a further aspect, the purity of the cannabinoid in the dispersion ranges from 90-100%. In a still further aspect, the purity of the cannabinoid in the dispersion ranges from 92-97%. In general, the inventors have discovered that the encapsulation process described herein can be improved with the use of a pure cannabinoid starting material (e.g., from 92-97% pure). Similarly, the nanoparticle encapsulated cannabinoid products can advantageously maintain the purity of the cannabinoid over extended periods of time. In some aspects, the purity of the cannabinoid starting material can be maintained once encapsulated for a period of twelve months or longer, e.g., 18 months or longer, or even 24 months or longer. The stable shelf life of the cannabinoid nanoparticles is an advantage over many existing methods for delivering cannabinoid products. In some aspects, the stability of the cannabinoid can be measured using NMR, e.g., by comparing a pre-encapsulated cannabinoid to a cannabinoid extracted from a nanoparticle prepared by a disclosed method.

With `C=C(C)[C@@H]1CCC(C)=C[C@H]1c1c(O)cc(CCCCC)cc1O` [CBD, cannabidiol] the “stability of CBD after encapsulation” value was “remains intact”.
